Measured values: patent US20190307123A1, “KIT OF ATTRACTANTS FOR ATTRACTING THE COFFEE BERRY BORER” (INSTITUT NATIONAL DE LA RECHERCHE AGRONOMIQUE, priority 2016, published 2019)
Entries after “also recorded” stand apart in the source; their conditions may differ.

How the values were obtained:
[1] = tested on: coffee berry borer Hypothenemus hampei; experiment: Field trapping trials in Costa Rica (Brocap traps in arabica coffee plantation); type: in vivo; settings: Costa Rica field tests; result in words
Experimental: The trials carried out above were supplemented in 2017 in Costa Rica, in a context of larger coffee berry borer populations. The trapping trials were carried out between Feb. 21 and Apr. 27, 2017, in the commercial arabica coffee plantations of the CATIE (Centro Agronómico Tropical de Investigación y Enseñanza) [The Tropical Agricultural Research and Higher Education Center] in Turrialba, Costa Rica. […] The Coffea arabica var. caturra plantations, located at approximately 600 meters of altitude, were planted in 2010 in combination with Erythrina poeppigiana as shade trees. The rows are oriented along the contour lines with a spacing of 80 cm between the plants and 2 meters between the rows (6300 plants/ha). All of the plots benefit from considerable annual maintenance: pluriannual weeding or chemical weed-killing between the rows, chemical fertilization during fruit formation, fungicide and optionally insecticide treatments in the event of coffee berry borer infestation. The yields therefrom are medium, about 1000 kg/ha/year of green bean coffee. Brocap® traps were placed directly in the coffee trees, suspended from the branches at a height of approximately 1 meter and with a spacing between the traps of approximately 20 meters. […] The number of coffee berry borers trapped was recorded daily. […]

[2] = tested on: coffee berry borer Hypothenemus hampei; experiment: Field trapping trials in Brazil (Unitrap traps in arabica coffee plantation); type: in vivo; settings: Brazil field tests, result in words
Experimental: The trapping trials were carried out between Jan. 8 and Mar. 31, 2016, during the fruit maturation phase, in an arabica coffee plantation conducted under biodynamic conditions in the municipality of […] Boa Vista, in the State of São Paulo in Brazil, at an altitude of 800 m. For each test, three plots received trials, each representing a random complete block. The Coffea arabica var. tupi plantations were set up at the beginning of the 2000s in combination with shade trees (Acacia mangium, Acacia auriculiformis, […] sepium, Leucaena leucocephala). The rows are oriented along the contour lines with a variable spacing according to the plots (0.6 to 0.75×3 to 3.6 meters), and the shade trees are planted at regular intervals in the rows of coffee trees. All of the plots benefit from considerable annual maintenance: regular cutting between the rows, organic fertilization and weeding during fruit formation, foliar fertilization during bean swelling and maturation. […] The traps (Pherobank Unitrap wing model) were placed directly in the coffee trees, suspended from the branches at a height of 1.20 meters or as high as possible when the plants were smaller. The spacing between the traps is approximately 20 meters. The products used were supplied by Sigma-Aldrich. They are: The products were placed in 2 ml glass vials, in which the opening of the septum allows free diffusion by evaporation. A first diffuser contained 0.5 ml of ethanol and 0.5 ml of methanol. A second diffuser contained, where appropriate, the terpenoids diluted in paraffin (0.5 ml of (-)-limonene or 0.5 ml of (+)-limonene, 0.5 ml of paraffin and where appropriate 0.1 ml of (-)-α-pinene). The number of coffee berry borers trapped was recorded daily, and the modes tested were modified each week which represents a test. Each recording in each block represents a repetition. Between each test, the traps were washed with a 2% TFD4 solution and the diffusers were changed.

## C=C(C)[C@@H]1CC=C(C)CC1 [(−)-limonene, (S)-(−)-Limonene]
[1]
  Effect on number of borers trapped when combined with the ethanol/methanol mixture, compared with the ethanol/methanol mixture alone: clearly increased
[2]
  Effect on number of borers trapped when combined with the ethanol/methanol mixture, compared with the alcohols alone: improves the attractiveness; also recorded: significantly increased; also recorded: clearly increased

## CCCCC(CC)CO (racemic) [2-ethyl-1-hexanol, 2-Ethyl-1-hexanol]
[1]
  Effect on number of borers trapped when combined with the ethanol/methanol mixture, compared with the ethanol/methanol mixture alone: clearly increased; also recorded: makes it possible to increase the trappings

## C=CC(C)(O)CCC=C(C)C (stereo not drawn) [linalool, reference compound]
[2]
  Effect on number of borers trapped when combined with the ethanol/methanol mixture, compared with the alcohols alone: virtually disappears

## C=C(C)[C@H]1CC=C(C)CC1 [(+)-limonene, (R)-(+)-Limonene, reference compound]
[2]
  Effect on number of borers trapped when combined with the ethanol/methanol mixture, compared with the alcohols alone: did not make it possible to improve the captures
[2]; listed as (+) enantiomer of limonene
  Effect on number of borers trapped when combined with the ethanol/methanol mixture, compared with the alcohols alone: does not increase the number of borers trapped
